PubChem BioAssay AID2060490 (Molecular Pharmacology Branch, DTP, NCI, 2025)

Tested on: 885512-296-R-J2-PDC complex spheroid viability
Test: Anticancer human tumor 885512-296-R-J2-PDC patient-derived breast carcinoma cell line growth inhibition [GQUAD]
Conditions: for viability, T/C: stronger effect = lower value; active = viability on the fitted dose curve at most 10% of control; inactive = the rest
Source text: DNA G-quadruplex Stabilizer Agents in Combinations in Complex Spheroids
A high-throughput screen of multi-cell type tumor spheroids was designed to identify active combinations of DNA G-quadruplex stabilizer agents and targeted small molecules. Complex spheroids include a stromal component modeled by human endothelial cells (HUVEC) and fibroblasts modeled by human mesenchymal stem cells (MSCs). The concentration ranges selected for each drug and investigational agent were based upon clinically achievable concentrations if the clinical Cmax of the agent was known.
Compounds. The drugs and investigational agents: pidnarulex (CX-5461; NSC782164), APTO-253 (NSC789042), BRACO-19 (NSC847499), peposertib (NSC802822), ceralasertib (NSC780249), elimusertib (NSC800525), camonsertib (NSC841442), AZD-1390 (NSC803789), olaparib (NSC753686), talazoparib (NSC767125), ART-558 (NSC835418), sotorasib (NSC818433), MRTX-1133 (NSC836407), SN-38 (NSC673596), topotecan (NSC609699), etoposide (NSC141540), doxorubicin (NSC123127), gemcitabine (NSC613327), 5-fluorouracil (NSC19893), paclitaxel (NSC125973), vemurafenib (NSC761431), panobinostat (NSC761190), R-306465 (JNJ-16241199; NSC773264), adavosertib (NSC754352), TP-3654 (NSC805149), carboplatin (NSC241240), KSQ-4279 (NSC840948), and staurosporine (NSC755774) were obtained from the National Cancer Institute (NCI) Developmental Therapeutics Program Chemical Repository (34). The FDA-approved anticancer drug set is available from the NCI Developmental Therapeutics Program. […] The stock solutions were prepared in dimethyl sulfoxide (DMSO, Sigma-Aldrich, St. Louis, MO, cat. D2650) at 800-fold the tested concentration and stored at -70 degrees C prior to their use. All drugs and investigational agents were tested over a range starting from a high concentration at or near the clinical Cmax and decreasing in half-log increments. If the clinical Cmax for an agent had not been determined, the highest concentration tested was 10 microM.
2.3 Cell Culture. All cells were maintained in an incubator at 37 degrees C and 5% CO2 with 95% humidity. The PDC lines were cultured according to standard operating procedures established by the NCI PDMR. All PDCs were thawed and cultured in Matrigel-coated flasks prepared with a working solution of 1X Ham's F-12 nutrient mix, without supplementation (Invitrogen, cat. 11765054), 100 U/mL penicillin-streptomycin (Invitrogen, cat. 15140122), and 2.5% Matrigel (Corning Inc., cat. 354248) for the first three passages. The 857933-349-R-J2-PDC line was cultured in 6C/Colon 1B media, which includes advanced DMEM/F-12 (Thermo Fisher Scientific, cat. 12634028), 10 mM HEPES (Thermo Fisher Scientific, cat. 15630080), 1X GlutaMAX supplement (Thermo Fisher Scientific, cat. 35050061), 0.1 mg/mL primocin (InvivoGen, cat. ant-pm-2), 10% defined fetal bovine serum, heat inactivated (HyClone Laboratories Inc., cat. SH30070.03HI), 50% L-WRN conditioned media (ATCC, cat. CRL-3276), 1.25 mM N-Acetyl-L-cysteine (Sigma-Aldrich, cat. A9165), 10 mM nicotinamide (Sigma-Aldrich, cat. N0636), 1X B-27 supplement (Thermo Fisher Scientific, cat. 17504044), 1X N-2 supplement (Thermo Fisher Scientific, cat. 17502048), 10 microM Y-27632 dihydrochloride (Tocris Bioscience, cat. 1254), and 50 ng/mL human EGF recombinant protein (Thermo Fisher Scientific, cat. PHG0311). The 485176-168-R4-J1-PDC line was cultured in Panc media, which includes all 6C/Colon 1B media components plus 100 ng/mL human FGF-10 (Thermo Fisher Scientific, cat. 100-26), 500 nM SB-431542 (Selleckchem, cat. S1067), and gastrin (Tocris, cat. 3006).
[…]

[1] = curve of first compound, second compound 0.0316 µM
[2] = curve of first compound, second compound 0.1 µM
[3] = curve of first compound, second compound 0.316 µM
[4] = curve of first compound, second compound 1 µM
[5] = curve of first compound, second compound 3.16 µM
[6] = curve of first compound, second compound 10 µM
[7] = second compound 0.0316 µM, first compound 0.0316 µM
[8] = second compound 0.0316 µM, first compound 0.1 µM
[9] = second compound 0.0316 µM, first compound 0.316 µM
[10] = second compound 0.0316 µM, first compound 1 µM
[11] = second compound 0.0316 µM, first compound 3.16 µM
[12] = second compound 0.0316 µM, first compound 10 µM
[13] = second compound 0.1 µM, first compound 0.0316 µM
[14] = second compound 0.1 µM, first compound 0.1 µM
[15] = second compound 0.1 µM, first compound 0.316 µM
[16] = second compound 0.1 µM, first compound 1 µM
[17] = second compound 0.1 µM, first compound 3.16 µM
[18] = second compound 0.1 µM, first compound 10 µM
[19] = second compound 0.316 µM, first compound 0.0316 µM
[20] = second compound 0.316 µM, first compound 0.1 µM
[21] = second compound 0.316 µM, first compound 0.316 µM
[22] = second compound 0.316 µM, first compound 1 µM
[23] = second compound 0.316 µM, first compound 3.16 µM
[24] = second compound 0.316 µM, first compound 10 µM
[25] = second compound 1 µM, first compound 0.0316 µM
[26] = second compound 1 µM, first compound 0.1 µM
[27] = second compound 1 µM, first compound 0.316 µM
[28] = second compound 1 µM, first compound 1 µM
[29] = second compound 1 µM, first compound 3.16 µM
[30] = second compound 1 µM, first compound 10 µM
[31] = second compound 3.16 µM, first compound 0.0316 µM
[32] = second compound 3.16 µM, first compound 0.1 µM
[33] = second compound 3.16 µM, first compound 0.316 µM
[34] = second compound 3.16 µM, first compound 1 µM
[35] = second compound 3.16 µM, first compound 3.16 µM
[36] = second compound 3.16 µM, first compound 10 µM
[37] = second compound 10 µM, first compound 0.0316 µM
[38] = second compound 10 µM, first compound 0.1 µM
[39] = second compound 10 µM, first compound 0.316 µM
[40] = second compound 10 µM, first compound 1 µM
[41] = second compound 10 µM, first compound 3.16 µM
[42] = second compound 10 µM, first compound 10 µM
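Also: spheroids exposed to the compounds for one week.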
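For viability, T/C in this document: percent of tumor spheroid viability relative to DMSO vehicle control wells.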

COc1ccc([C@@H](O)c2cc(-c3ncnc4cc(N5CCOCC5)ccc34)c(F)cc2Cl)nn1 + CN(C)c1ccc(Nc2c3ccc(NC(=O)CCN4CCCC4)cc3nc3cc(NC(=O)CCN4CCCC4)ccc23)cc1
9540 nM: IC50 [1]
4100 nM: IC50 [5]
< 31.6 nM: IC50 [6]
inactive: viability, T/C [7] 105% | viability, T/C [8] 106% | viability, T/C [9] 104% | viability, T/C [10] 103% | viability, T/C [11] 83.8% | viability, T/C [12] 48.5% | viability, T/C [13] 121% | viability, T/C [14] 93.8% | viability, T/C [15] 92.1% | viability, T/C [16] 92.7% | viability, T/C [17] 74.4% | viability, T/C [18] 53.6% | viability, T/C [19] 104% | viability, T/C [20] 98.1% | viability, T/C [21] 91% | viability, T/C [22] 86.6% | viability, T/C [23] 81.6% | viability, T/C [24] 50.1% | viability, T/C [25] 93.4% | viability, T/C [26] 101% | viability, T/C [27] 98.5% | viability, T/C [28] 88.1% | viability, T/C [29] 81.3% | viability, T/C [30] 51.9% | viability, T/C [31] 94.6% | viability, T/C [32] 101% | viability, T/C [33] 86% | viability, T/C [34] 63% | viability, T/C [35] 60.2% | viability, T/C [36] 34.9% | viability, T/C [37] 13.4% | viability, T/C [38] 21.5% | viability, T/C [39] 19.6% | viability, T/C [40] 14.6% | viability, T/C [41] 10.4%
active: viability, T/C [42] 6.55%
> 10000 nM: IC50 [2] | IC50 [3] | IC50 [4]

CC(C)(O)C1CCC(Nc2ccc3ncc(-c4cccc(C(F)(F)F)c4)n3n2)CC1 (stereo unspecified) + CN(C)c1ccc(Nc2c3ccc(NC(=O)CCN4CCCC4)cc3nc3cc(NC(=O)CCN4CCCC4)ccc23)cc1
1560 nM: IC50 [3]
1030 nM: IC50 [5]
1510 nM: IC50 [2]
1550 nM: IC50 [4]
1720 nM: IC50 [1]
active: viability, T/C [35] 4.35% | viability, T/C [36] 4.39% | viability, T/C [40] 8.44% | viability, T/C [41] 0.72% | viability, T/C [42] 0.22%
< 31.6 nM: IC50 [6]
inactive: viability, T/C [7] 111% | viability, T/C [8] 99.6% | viability, T/C [9] 105% | viability, T/C [10] 78.7% | viability, T/C [11] 11.9% | viability, T/C [12] 23.8% | viability, T/C [13] 99.6% | viability, T/C [14] 95% | viability, T/C [15] 97.9% | viability, T/C [16] 68.4% | viability, T/C [17] 15.2% | viability, T/C [18] 18.6% | viability, T/C [19] 106% | viability, T/C [20] 98.6% | viability, T/C [21] 86.3% | viability, T/C [22] 72.2% | viability, T/C [23] 9.35% | viability, T/C [24] 19.9% | viability, T/C [25] 92.7% | viability, T/C [26] 92.4% | viability, T/C [27] 86.3% | viability, T/C [28] 72.5% | viability, T/C [29] 9.81% | viability, T/C [30] 16.3% | viability, T/C [31] 102% | viability, T/C [32] 87.9% | viability, T/C [33] 80.5% | viability, T/C [34] 54.9% | viability, T/C [37] 16.9% | viability, T/C [38] 12.6% | viability, T/C [39] 16%

CN(C)c1ccc(Nc2c3ccc(NC(=O)CCN4CCCC4)cc3nc3cc(NC(=O)CCN4CCCC4)ccc23)cc1
inactive: viability, T/C (compound 0.0316 µM) 100% [middle of 12 runs] | viability, T/C (compound 0.1 µM) 102% [middle of 12 runs] | viability, T/C (compound 0.316 µM) 105% [middle of 12 runs] | viability, T/C (compound 1 µM) 102% [middle of 12 runs] | viability, T/C (compound 3.16 µM) 103% [middle of 12 runs] | viability, T/C (compound 10 µM) 21.1% [middle of 12 runs]
6.43 µM [middle of 11 runs]: IC50 (compound alone, run of 04/22/2024)
